Results taken from paper PMC8697972, “New Auranofin Analogs with Antibacterial Properties against Burkholderia Clinical Isolates” (Antibiotics, 2021).
In brackets after ≈: the same amount, converted by molar mass. Where two headings read alike, the source gives them in different places. Marks after values point to notes of the source that are not given here.

How the values were obtained:
members of the Bcc = experiment: MIC, summary over Bcc panel; type: cell-based, Burkholderia cepacia complex
B. contaminans FFH-4004 = type: cell-based, Burkholderia contaminans
B. contaminans MF16 = type: cell-based, Burkholderia contaminans
B. dolosa CEP021 = type: cell-based, Burkholderia dolosa
B. ubonensis LMG 20358 = type: cell-based, Burkholderia ubonensis
B. multivorans ATCC17616 = type: cell-based, Burkholderia multivorans
[1] = tested on: Galleria mellonella larvae; experiment: Galleria toxicity
B. cenocepacia K56-2 [2] = type: cell-based, Burkholderia cenocepacia; details: 18 h
[3] = tested on: Burkholderia cenocepacia K56-2; experiment: Time kill assays (exponential and stationary phase); details: for killing of stationary (non-replicating) phase cells: 4× MIC (DOX 4× MIC)
B. cenocepacia 140485 = type: cell-based, Burkholderia cenocepacia
C. elegans DH26 = details: for Percent survival of C. elegans: 24 h; for Survival100/MIC Ratio: highest concentration with 100 percent survival divided by the compound's MIC
B. lata BCC6 = type: cell-based, Burkholderia lata
[4] = tested on: B. contaminans FFH-2050MA; type: cell-based, Burkholderia contaminans
[5] = tested on: Staphylococcus aureus ATCC 27700; experiment: MBC (minimum bactericidal concentration)
[6] = tested on: Acinetobacter baumannii ATCC 17978; type: cell-based
[7] = tested on: Acinetobacter baumannii ATCC 17978; experiment: MBC (minimum bactericidal concentration)
[8] = tested on: Stenotrophomonas maltophilia DH57; experiment: MBC (minimum bactericidal concentration)
[9] = tested on: B. mallei Ivan (NCTC 10230); type: cell-based, Burkholderia mallei
[10] = tested on: Staphylococcus aureus 107094; type: cell-based
[11] = tested on: Staphylococcus aureus ATCC 27700; type: cell-based
B. cenocepacia K56-2 [12] = experiment: MIC in 50% human serum; type: cell-based, Burkholderia cenocepacia
Escherichia coli 120955 [13] = type: cell-based
[14] = tested on: Klebsiella pneumoniae 120310; type: cell-based
[15] = tested on: Escherichia vulneris CEP511; experiment: MBC (minimum bactericidal concentration)
[16] = tested on: Stenotrophomonas maltophilia K279a; type: cell-based
B. cenocepacia K56-2 [17] = experiment: In vivo antibiotic activity in infected G. mellonella; details: G. mellonella infected with B. cenocepacia K56-2, data not shown
[18] = tested on: Staphylococcus aureus 107094; experiment: MBC (minimum bactericidal concentration)
[19] = tested on: Stenotrophomonas maltophilia K279a; experiment: MBC (minimum bactericidal concentration); type: cell-based
[20] = tested on: Achromobacter xylosoxidans ACH03; experiment: MBC (minimum bactericidal concentration)
[21] = tested on: Klebsiella pneumoniae 120310; experiment: MBC (minimum bactericidal concentration)
[22] = tested on: B. mallei China 5 (NBL 4); type: cell-based, Burkholderia mallei
[23] = tested on: Achromobacter xylosoxidans ACH03; type: cell-based
[24] = tested on: Stenotrophomonas maltophilia DH57; type: cell-based
[25] = tested on: Escherichia vulneris CEP511; type: cell-based
Escherichia coli 120955 [26] = experiment: MBC (minimum bactericidal concentration)
[27] = tested on: B. cenocepacia K56-2 persister cells; experiment: Time kill of persister cells generated with ciprofloxacin; type: cell-based, Burkholderia cenocepacia
[28] = tested on: B. pseudomallei HBPUB10134a; type: cell-based, Burkholderia pseudomallei
B. pseudomallei 1710b = type: cell-based, Burkholderia pseudomallei
B. cenocepacia K56-2 [29] = experiment: Persister frequency assay; details: 24 h
B. pseudomallei MSHR465a = type: cell-based, Burkholderia pseudomallei
[30] = tested on: Burkholderia cenocepacia K56-2; experiment: MBC (minimum bactericidal concentration); type: cell-based; details: MBC determined from exponential time kill curve
B. cenocepacia K56-2 [31] = experiment: In vivo antibiotic activity in infected C. elegans; details: C. elegans infected with B. cenocepacia K56-2, data not shown
[32] = tested on: B. mallei China 7 (NBL 7); type: cell-based, Burkholderia mallei

## C[C@H]1c2cccc(O)c2C(=O)C2=C(O)[C@]3(O)C(=O)C(C(N)=O)=C(O)[C@@H](N(C)C)[C@@H]3[C@@H](O)[C@@H]21 [DOX, doxycycline, reference compound]
Members of the Bcc; Burkholderia cepacia, read-out: MIC values against some isolates from the Bcc, lowest values, some isolates
  MIC: 1 µg/mL (≈ 2.25 µM)
Members of the Bcc; lowest values, some isolates
  MIC values against some isolates from the Bcc: 2 µg/mL (≈ 4.5 µM)
B. contaminans FFH-4004; Burkholderia contaminans, FFH4004
  MIC: 8 µg/mL (≈ 18 µM)
B. contaminans MF16; Burkholderia contaminans, MF16
  MIC: 16 µg/mL (≈ 36 µM)
B. dolosa CEP021; Burkholderia dolosa, CEP021
  MIC: 16 µg/mL (≈ 36 µM)
B. ubonensis LMG 20358; Burkholderia ubonensis, LMG20358
  MIC: 4 µg/mL (≈ 9 µM)
B. multivorans ATCC17616; Burkholderia multivorans, ATCC17616
  MIC: 2 µg/mL (≈ 4.5 µM)
[1]; 1.0 mg/kg, 24 h
  Galleria Survival: 96.7%
[1]; 1.0 mg/kg, 48 h
  Galleria Survival: 96.7%
[1]; 1.0 mg/kg, 72 h
  Galleria Survival: 96.7%
[1]; 2.0 mg/kg, 24 h
  Galleria Survival: 93.3%
[1]; 2.0 mg/kg, 48 h
  Galleria Survival: 93.3%
[1]; 2.0 mg/kg, 72 h
  Galleria Survival: 93.3%
[1]; 5.0 mg/kg, 24 h
  Galleria Survival: 93.3%
[1]; 5.0 mg/kg, 48 h
  Galleria Survival: 90.0%
[1]; 5.0 mg/kg, 72 h
  Galleria Survival: 90.0%
[1]; 10.0 mg/kg, 24 h
  Galleria Survival: 93.3%
[1]; 10.0 mg/kg, 48 h
  Galleria Survival: 93.3%
[1]; 10.0 mg/kg, 72 h
  Galleria Survival: 93.3%
B. cenocepacia K56-2 [2]; Burkholderia cenocepacia
  MIC: 4 µg/mL (≈ 9 µM)
[3]; time kill, 1×, 2×, 6 h
  killing of stationary (non-replicating) phase cells: unable to kill cells
B. cenocepacia 140485; Burkholderia cenocepacia, 140485
  MIC: 1 µg/mL (≈ 2.25 µM)
C. elegans DH26; 4 μg/mL
  Percent survival of C. elegans: 100%
C. elegans DH26; 8 μg/mL
  Percent survival of C. elegans: 97.4%
C. elegans DH26; 16 μg/mL
  Percent survival of C. elegans: 100%
C. elegans DH26; 32 μg/mL
  Percent survival of C. elegans: 98.2%
C. elegans DH26; 64 μg/mL
  Percent survival of C. elegans: 100%
C. elegans DH26; 128 μg/mL
  Percent survival of C. elegans: 91.5%
C. elegans DH26; 256 μg/mL
  Percent survival of C. elegans: 79.5%
C. elegans DH26
  Survival100/MIC Ratio: 16
B. lata BCC6; Burkholderia lata, BCC6
  MIC: 4 µg/mL (≈ 9 µM)
[4]; Burkholderia contaminans, FFH2050MA
  MIC: 2 µg/mL (≈ 4.5 µM)

## CC(O)C[S][Au-][P+](C)(C)C (stereo not shown) [MS-40S]
B. contaminans FFH-4004; B. contaminans FFH-4004
  MIC: 16 µg/mL
B. contaminans MF16; B. contaminans MF16
  MIC: 8 µg/mL
[5]
  MBC: 2 µg/mL
[6]
  MIC: 2 µg/mL
[7]
  MBC: 8 µg/mL
[8]
  MBC: 8 µg/mL
[9]
  MIC: 0.12 µg/mL
[10]
  MIC: 0.25 µg/mL
[11]
  MIC: 0.5 µg/mL
B. cenocepacia K56-2 [12]
  MIC in the presence of 50% human serum: 128 µg/mL
B. dolosa CEP021; B. dolosa CEP021
  MIC: 32 µg/mL
B. ubonensis LMG 20358; B. ubonensis LMG 20358
  MIC: 16 µg/mL
B. multivorans ATCC17616; B. multivorans ATCC17616
  MIC: 16 µg/mL
Escherichia coli 120955 [13]
  MIC: 4 µg/mL
[14]
  MIC: 4 µg/mL
[15]
  MBC: 4 µg/mL
[16]
  MIC: 2 µg/mL
B. cenocepacia K56-2 [17]
  in vivo antibiotic activity: did not observe in vivo antibiotic activity
[18]
  MBC: 1 µg/mL
[19]
  MBC: 8 µg/mL
[20]
  MBC: 32 µg/mL
[1]; 1.0 mg/kg, 24 h
  Galleria Survival: 96.7%
[1]; 1.0 mg/kg, 48 h
  Galleria Survival: 86.7%
[1]; 1.0 mg/kg, 72 h
  Galleria Survival: 86.7%
[1]; 2.0 mg/kg, 24 h
  Galleria Survival: 83.3%
[1]; 2.0 mg/kg, 48 h
  Galleria Survival: 83.3%
[1]; 2.0 mg/kg, 72 h
  Galleria Survival: 83.3%
[1]; 5.0 mg/kg, 24 h
  Galleria Survival: 93.3%
[1]; 5.0 mg/kg, 48 h
  Galleria Survival: 86.7%
[1]; 5.0 mg/kg, 72 h
  Galleria Survival: 86.7%
[1]; 10 mg/kg
  percent survival of Galleria larvae: ≥ 80%
[1]; 10.0 mg/kg, 24 h
  Galleria Survival: 90.0%
[1]; 10.0 mg/kg, 48 h
  Galleria Survival: 76.7%
[1]; 10.0 mg/kg, 72 h
  Galleria Survival: 76.7%
[21]
  MBC: 8 µg/mL
[22]
  MIC: 0.12 µg/mL
[23]
  MIC: 16 µg/mL
[24]
  MIC: 2 µg/mL
[25]
  MIC: 4 µg/mL
B. cenocepacia K56-2 [2]; B. cenocepacia K56-2, CAMHB, 37 °C
  MIC: 8 µg/mL
Escherichia coli 120955 [26]
  MBC: 64 µg/mL
[27]; enriched persister population
  further reduction of ciprofloxacin-generated persister population: 1–2 log10 CFU/mL
[27]; in PBS, 3 h, MS-40S/MS-40 2× and 4× MIC, ciprofloxacin 5× MIC
  killing of ciprofloxacin-generated persister cells: killed to a concentration below/close to the limit of detection
[28]
  MIC: 2 µg/mL
B. pseudomallei 1710b
  MIC: 4 µg/mL
[3]; 4× MIC, exponential phase
  reduction of the culture in time kill: approximately three
[3]; time kill, 1×, 2×, 6 h
  killing of stationary (non-replicating) phase cells: bactericidal
[3]; time kill, 1×, 2×, 4× MIC, 6 h
  killing of exponential (replicating) phase cells: bactericidal
B. cenocepacia 140485; B. cenocepacia 140485
  MIC: 16 µg/mL
C. elegans DH26; 4 μg/mL
  Percent survival of C. elegans: 100%
C. elegans DH26; 8 μg/mL
  Percent survival of C. elegans: 100%
C. elegans DH26; 16 μg/mL
  Percent survival of C. elegans: 100%
C. elegans DH26; 32 μg/mL
  Percent survival of C. elegans: 100%
C. elegans DH26; 64 μg/mL
  Percent survival of C. elegans: 100%
C. elegans DH26; 128 μg/mL
  Percent survival of C. elegans: 97.6%
C. elegans DH26; 256 μg/mL
  Percent survival of C. elegans: 85.7%
C. elegans DH26
  Survival100/MIC Ratio: 8
B. cenocepacia K56-2 [29]; 5× MIC
  persister frequency (percent survival): very low persister frequency
B. cenocepacia K56-2 [29]; 10× MIC
  persister frequency (percent survival): no persisters
B. lata BCC6; B. lata BCC6
  MIC: 8 µg/mL
B. pseudomallei MSHR465a
  MIC: 4 µg/mL
[30]
  MBC: >32 * μg/mL
B. cenocepacia K56-2 [31]
  in vivo antibiotic activity: did not observe in vivo antibiotic activity
[32]
  MIC: 0.25 µg/mL
[4]; B. contaminans FFH-2050MA
  MIC: 16 µg/mL
